Molecular target: T1, tyrosinase from mushroom
T1 construct: gene PPO3; commercial native mushroom enzyme (Fischer Scientific)
Assay: tyrosinase inhibition assay
Type: biochemical
Conditions: positive control; anomer of arbutin not stated
Text: tyrosinase inhibition assay on tyrosinase from mushroom

## OC[C@H]1O[C@@H](Oc2ccc(O)cc2)[C@H](O)[C@@H](O)[C@@H]1O [Arbutin]
  Tyrosinase: 0.17 ± 0.01 mg/mL
